In patent US20130171263A1, “Snake Powder Extract For Treatment Of Cancer” (priority 2006, published 2013):

Tests used:
[1] = tested on: tumor cell lines (K562, Raji, Jurkatt, CEM, MCF-7, MDA-MB-231, MD-MB-468, LNCaP, PC-3, HT-29, HCT-116, PANC-1, GL10-1); assay: Tumor cell proliferation, oxygen biosensor; type: cell-based; conditions: DMSO, ethanol and PBS solutions, at least 24 hour incubation, FIGS. 6-8
From the text: Referring to FIGS. 6, 7, and 8 the effect of snake extract on tumor cell proliferation utilizing the DMSO, ethanol, and PBS solutions, is respectively analyzed. The methodology used to analyze tumor cell proliferation was oxygen biosensor. With this methodology culture plates are coated with an oxygen sensitive fluorescent compound embedded in a gas-permeable and hydrophobic matrix permanently attached to the bottom of a multi-well plate. The amount of fluorescence correlates directly to the rate of oxygen consumption in the well, providing a signal that can be directly correlated to cell growth.
In the experiments in FIGS. 1-8, the experiments were done with an effective amount of each analyzed target cancer cell lines dissolved within each snake extract solution measured as noted in each Figure for at least a 24 hour incubation period.
The following cell lines were utilized in the tests listed above: • Leukemia/Lymphoma: K562, Raji, Jurkatt, CEM; • Breast Carcinoma MCF-7, MDA-MB-231, MD-MB-468; • Prostate Carcinoma LNCaP, PC-3; • Colorectal Carcinoma: HT-29, HCT-116; • Pancreatic Carcinoma: PANC-1; • Gliobastaoma: GL10-1.

[2] = tested on: Artemia salina; assay: Brine shrimp lethality assay; type: in vivo; conditions: 24 h, nauplii
Description: The eggs of brine shrimp, Airtime salina (Leach), are used in monitoring bioactive compounds. The eggs are readily available in pet shops at low cost and remain viable for years in the dry state. The brine shrimp assay has advantages of being rapid (24 hrs), inexpensive, and simple. No aseptic techniques are required. It easily utilizes a large number of organisms for statistical validation and requires no special equipment and a relatively small amount of sample.
The assay was carried out with Artemia salina eggs. 50 mg of Artemia salina eggs in a beaker containing sea salt (6 g), yeast (0.9 mg) and distilled water (150 ml) were incubated at 27-28° C. for 24 hrs. The newly hatched nauplii were concentrated. From this volume, aliquots of 50 μl (approximately 18-20 nauplii) were pipette directly into a 24 well plates containing sea water (sw), −ve control (DMSO+sw), +ve control (emetine) or different concentrations of extracts (62.5-500 μg/ml). Assay was carried out in triplicate. The plates were sealed and incubated at 27-28° C. for 24 h. At the end of the 24-h incubation period, the content of each well was pipette into a watch glass individually. Survival was assessed by scoring the number of dead nauplii using a microscope. Once counts of dead nauplii had been taken, 0.5 ml of methanol was added to kill all remaining nauplii. The contents of each well were then recorded and result tabulated as (X/Y; where X=number dead and Y=number of dead and alive).

[3] = tested on: breast cancer cells; conditions: cited from earlier work
[4] = tested on: MDA-MB-435 tumor masses; conditions: cited from earlier work
[5] = tested on: B16F10 solid tumor; conditions: cited from earlier work
[6] = tested on: angiogenesis; conditions: elicited by basic fibroblast growth factor; cited from earlier work

CC[C@@]1(O)C(=O)OCc2c1cc1n(c2=O)Cc2cc3ccccc3nc2-1 [Camptothecin]
inhibiting cell proliferation [1]: more effective at inhibiting cell proliferation of different cell lines than the snake powder extract

CC[C@H]1CN2CCc3cc(OC)c(OC)cc3[C@@H]2C[C@@H]1C[C@H]1NCCc2cc(OC)c(OC)cc21 [Emetine]
% mortality ([2]; concentration 62.5 (extracts 62.5-500 μg/ml)): 58.2% | % mortality ([2]; concentration 125 (extracts 62.5-500 μg/ml)): 100% | % mortality ([2]; concentration 250 (extracts 62.5-500 μg/ml)): 100% | % mortality ([2]; concentration 500 (extracts 62.5-500 μg/ml)): 100%

Contortrostatin
cytotoxicity to cancer cells [3]: not cytotoxic | proliferation of the breast cancer cells in vitro [3]: does not inhibit proliferation | angiogenesis induced by breast cancer ([4]; immunohistochemical quantitation of vascular endothelial cells in tumor tissue): inhibiting angiogenesis | inhibited growth of tumor ([4]; injected daily at 5 microgram per mouse): 74%

Rhodostomin
survival ([5]; C57BL/6 mice): prolonged survival | tumor growth ([5]; subcutaneously inoculated B16F10 solid tumor): suppressed tumor growth | angiogenesis [6]: inhibit angiogenesis
